pKd: −log10 of the molar value. Where a SMILES comes first, the peptide text is derived from it.
Assays:
HeLa [1] = assay: Cellular uptake in human HeLa cell vesicular compartments at 50 uM after 60 mins using Hoechst H33342 dye by fluorescence microscopy analysis; type: ADME, cell-based; settings: 1 h
MCF7 [2] = assay: Cellular uptake in human MCF7 cells at 25 uM after 60 mins by flow cytometry; type: ADME, cell-based; settings: mcf7, 1 h
HT-29 [3] = assay: Cellular uptake in human HT-29 cell vesicular compartments at 25 uM after 60 mins using Hoechst H33342 dye by fluorescence microscopy analysis; type: ADME, cell-based; settings: ht-29, 1 h
[4] = target: Serine/threonine-protein kinase PLK1 (Homo sapiens, UniProt P53350); assay: Binding affinity to human polo-box domain of PLK1 after 1 hr by fluorescence polarization-based assay
Sequence of Serine/threonine-protein kinase PLK1 (P53350 whole entry, the tested form may be a part): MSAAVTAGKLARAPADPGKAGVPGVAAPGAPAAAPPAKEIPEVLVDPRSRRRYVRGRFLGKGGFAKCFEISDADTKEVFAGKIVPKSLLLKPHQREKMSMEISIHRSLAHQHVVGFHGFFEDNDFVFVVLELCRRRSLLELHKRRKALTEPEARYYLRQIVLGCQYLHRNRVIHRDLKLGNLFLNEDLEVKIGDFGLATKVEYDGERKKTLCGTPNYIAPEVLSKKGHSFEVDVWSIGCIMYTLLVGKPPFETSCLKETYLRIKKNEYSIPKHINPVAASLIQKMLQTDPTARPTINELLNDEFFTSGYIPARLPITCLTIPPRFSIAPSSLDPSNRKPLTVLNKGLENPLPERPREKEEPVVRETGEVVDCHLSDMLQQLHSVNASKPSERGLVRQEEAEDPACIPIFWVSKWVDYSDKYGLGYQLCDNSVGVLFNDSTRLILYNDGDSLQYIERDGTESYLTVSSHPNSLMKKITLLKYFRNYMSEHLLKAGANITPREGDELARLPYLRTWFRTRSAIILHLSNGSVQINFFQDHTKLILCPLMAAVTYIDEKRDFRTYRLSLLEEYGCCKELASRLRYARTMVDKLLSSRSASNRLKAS

MCF7 [5] = assay: Cellular uptake in human MCF7 cell vesicular compartments at 50 uM after 60 mins using Hoechst H33342 dye by fluorescence microscopy analysis; type: ADME, cell-based; settings: mcf7, 1 h
HeLa [6] = assay: Cellular uptake in human HeLa cells at 25 uM after 60 mins by flow cytometry; type: ADME, cell-based; settings: 1 h
HT-29 [7] = assay: Cellular uptake in human HT-29 cells at 25 uM after 60 mins by flow cytometry; type: ADME, cell-based; settings: ht-29, 1 h
HT-29 [8] = assay: Cellular uptake in human HT-29 cells assessed per mg of protein; type: ADME, cell-based
FaDu = assay: Cellular uptake in human FADU cells assessed per mg of protein; type: ADME, cell-based
HeLa [9] = assay: Toxicity in human HeLa cells at up to 100 uM after 24 hrs; type: cell-based
MCF7 [10] = assay: Cellular uptake in human MCF7 cells at 25 uM after 60 mins by flow cytometry relative to cellular uptake in human HeLa cells; type: ADME, cell-based; settings: mcf7, 1 h
HT-29 [11] = assay: Cellular uptake in human HT-29 cells at 25 uM after 60 mins by flow cytometry relative to cellular uptake in human HeLa cells; type: ADME, cell-based; settings: ht-29, 1 h
MCF7 [12] = assay: Toxicity in human MCF7 cells at up to 100 uM after 24 hrs; type: cell-based; settings: mcf7, 24 h
HT-29 [13] = assay: Toxicity in human HT-29 cells at up to 100 uM after 24 hrs; type: cell-based; settings: ht-29, 24 h
MCF7 [14] = assay: Cellular uptake in human MCF7 cell nucleus at 50 uM after 60 mins using Hoechst H33342 dye by fluorescence microscopy analysis; type: ADME, cell-based; settings: mcf7, 1 h

## CSCC[C@H](NC(=O)c1ccc2c(c1)C1(OC2=O)c2ccc(O)cc2Oc2cc(O)ccc21)C(=O)N[C@@H](CCC(N)=O)C(=O)N[C@@H](CO)C(=O)N[C@H](C(=O)N1CCC[C@H]1C(=O)N[C@@H](CC(C)C)C(=O)O)[C@@H](C)OP(=O)(O)O
HeLa [1]
  Drug uptake: Not Active
MCF7 [2]
  Drug uptake: Not Active
HT-29 [3]
  Drug uptake: Not Active
[4]
  pKd: 7.03
MCF7 [5]
  Drug uptake: Not Active
HeLa [6]
  Drug uptake: Not Active
HT-29 [7]
  Drug uptake: Active

## CSCC[C@H](NC(=O)c1ccc([18F])cc1)C(=O)N[C@@H](CCC(N)=O)C(=O)N[C@@H](CO)C(=O)N[C@H](C(=O)N1CCC[C@H]1C(=O)N[C@@H](CC(C)C)C(=O)O)[C@@H](C)OP(=O)(O)O
HT-29 [8]
  Drug uptake: < 1 %ID
FaDu
  Drug uptake: < 1 %ID

## CC[C@H](C)[C@H](NC(=O)[C@H](CCCCN)NC(=O)[C@H](CC(N)=O)NC(=O)[C@H](CCCN=C(N)N)NC(=O)[C@H](Cc1ccccc1)NC(=O)[C@H](CCCCN)NC(=O)[C@H](CCCN=C(N)N)NC(=O)[C@H](CC(C)C)NC(=O)[C@H](CCCN=C(N)N)NC(=O)[C@H](CCCCN)NC(=O)[C@H](CCCN=C(N)N)NC(=O)[C@H](CC(C)C)NC(=O)CNC(=O)[C@H](CC(C)C)NC(=O)[C@@H]1CCCN1C(=O)[C@@H](NC(=O)[C@H](CO)NC(=O)[C@H](CCC(N)=O)NC(=O)[C@H](CCSC)NC(=O)c1ccc2c(c1)C1(OC2=O)c2ccc(O)cc2Oc2cc(O)ccc21)[C@@H](C)OP(=O)(O)O)C(=O)N[C@@H](CCCCN)C(=O)N[C@@H](CCC(=O)O)C(=O)N[C@@H](CCCCN)C(N)=O (HELM PEPTIDE1{[O=C1OC2(c3ccc(O)cc3Oc3cc(O)ccc32)c2cc(C(=O)[*:2])ccc21].M.Q.S.[C[C@@H](OP(=O)(O)O)[C@H](N[*:1])C(=O)[*:2]].P.L.G.L.R.K.R.L.R.K.F.R.N.K.I.K.E.K.[am]}$$$$V2.0)
HeLa [9]
  Activity: Non-toxic
MCF7 [10]
  Drug uptake: 15%
HeLa [1]
  Drug uptake: Active
MCF7 [2]
  Drug uptake: Active
HT-29 [3]
  Drug uptake: Active
HT-29 [11]
  Drug uptake: 15%
[4]
  pKd: 6.59
MCF7 [5]
  Drug uptake: Active
HeLa [6]
  Drug uptake: Active
MCF7 [12]
  Activity: Non-toxic
HT-29 [7]
  Drug uptake: Active
HT-29 [13]
  Activity: Non-toxic

## CC[C@H](C)[C@H](NC(=O)[C@H](C)NC(=O)[C@@H](NC(=O)[C@H](CCC(N)=O)NC(=O)[C@@H]1CCCN1C(=O)[C@H](Cc1ccccc1)NC(=O)[C@@H](NC(=O)[C@H](Cc1cnc[nH]1)NC(=O)[C@H](Cc1ccccc1)NC(=O)[C@H](CCCCNC(=O)[C@H](C)NC(=O)[C@H](Cc1ccccc1)NC(=O)[C@H](CCCCN)NC(=O)[C@H](CCCNC(=N)N)NC(=O)[C@H](CCCCN)NC(=O)[C@H](CCCCN)NC(=O)[C@H](CCCCN)NC(=O)[C@@H]1CCCN1C(=O)[C@H](C)NC(=O)[C@H](CCCCN)NC(=O)[C@H](CCCNC(=N)N)NC(=O)[C@H](CCCCN)NC(=O)[C@@H](N)CCCCN)NC(=O)[C@H](CC(C)C)NC(=O)[C@@H]1CCCN1C(=O)[C@@H](NC(=O)[C@H](CO)NC(=O)[C@H](CCC(N)=O)NC(=O)[C@H](CCSC)NC(=O)c1ccc2c(c1)C1(OC2=O)c2ccc(O)cc2Oc2cc(O)ccc21)[C@@H](C)OP(=O)(O)O)[C@@H](C)O)[C@@H](C)O)C(=O)NCC(=O)N[C@H](C(=O)NCC(=O)N[C@@H](C)C(=O)N1CCC[C@H]1C(N)=O)C(C)C (HELM PEPTIDE1{[O=C1OC2(c3ccc(O)cc3Oc3cc(O)ccc32)c2cc(C(=O)[*:2])ccc21].M.Q.S.[C[C@@H](OP(=O)(O)O)[C@H](N[*:1])C(=O)[*:2]].P.L.K.F.H.T.F.P.Q.T.A.I.G.V.G.A.P.[am]}|PEPTIDE2{K.K.R.K.A.P.K.K.K.R.K.F.A}$PEPTIDE1,PEPTIDE2,8:R3-13:R2$$$V2.0)
MCF7 [14]
  Drug uptake: Active
HeLa [9]
  Activity: Non-toxic
MCF7 [10]
  Drug uptake: 15%
HeLa [1]
  Drug uptake: Active
MCF7 [2]
  Drug uptake: Active
HT-29 [3]
  Drug uptake: Active
HT-29 [11]
  Drug uptake: 15%
[4]
  pKd: 6.49
MCF7 [5]
  Drug uptake: Active
HeLa [6]
  Drug uptake: Active
MCF7 [12]
  Activity: Non-toxic
HT-29 [7]
  Drug uptake: Active
HT-29 [13]
  Activity: Non-toxic
